The values below come from PMC8300879 (Journal of medicinal chemistry, 2021).

Data set [1] has as its system acetylation of histone H3 (primary substrate of HDAC1 and other nuclear HDACs) in NB4, U87 and U2OS cells. Kind of data set: Western blot, acetylation of histone H3 in cancer cell lines. It is filed as cell-based. The note with it: 5 μM for 30 h. (A western blot detects proteins with antibodies after separation by electrophoresis.)
The test system of data set [2] is tubulin acetylation (the client protein of HDAC6) in NB4, U87 and U2OS cells. Nature of the data set: Western blot, acetylation of α-tubulin in cancer cell lines. Format: cell-based. As to conditions: 5 μM for 30 h; for acetylation of tubulin: NB4 and U87 cells.
Data set [3] deals with ABC derived from IPF patients. Kind of data set: 3D organoid. Format: cell-based, human. The note with it: ABC from IPF patients (n = 3), 14 days.
In data set [4] the test system is TGF-β1-stimulated human lung parenchyma. Kind of data set: Human lung tissue explant model of TGF-β1-dependent fibrogenesis. It is filed as cell-based. As to conditions: 6h 4.1 μM, TGF-β1 10 ng/ml, 7 days.
Data set [5] relates to TA98 and TA100 strains of Salmonella typhimurium. Nature of the data set: Ames test with and without S9 fraction. Format: cell-based. The note with it: TA98 and TA100, with and without S9 fraction of rat liver, 1–75 μM. In general terms: The Ames test uses bacterial strains that need an amino acid and regain growth without it when mutated back.
Data set [6] deals with zebrafish larvae (Danio rerio). Nature of the data set: Toxicity screen and optokinetic visual behaviour assay in zebrafish larvae. Format: in vivo.

As for `CN1CCC2(CC1)c1ccccc1N(Cc1ccc(C(=O)NO)cc1)C2c1ccc(F)cc1` (racemic) [(±)-6e, (±)-4-((2-(4-Fluorophenyl)-1’-methylspiro[indoline-3,4’-piperidin]-1-yl)methyl)-N-hydroxybenzamide], the “histone H3 acetylation” value in data set [1] is “unchanged”. In addition, the acetylation of tubulin entry in data set [2] is “marked acetylation of tubulin”.

In the case of `CC1(C)c2ccccc2N(Cc2ccc(C(=O)NO)cc2)C1c1ccncc1` (racemic) [(±)-6l], in data set [1], the “histone H3 acetylation” value is “unchanged”. In addition, the spheres formation result in data set [3] was “complete inhibition”. Also, the acetylation of tubulin entry in data set [2] was “marked acetylation of tubulin”. For the same molecule, in data set [2] (U2OS cell line), the “acetylation of α-tubulin versus histone H3” value was “preferentially promote acetylation of α-tubulin”.

Consider `CN1CCC2(CC1)c1ccccc1N(Cc1ccc(C(=O)NO)cc1)C2c1ccccc1F` (racemic) [(±)-6d, (±)-4-((2-(2-Fluorophenyl)-1’-methylspiro[indoline-3,4’-piperidin]-1-yl)methyl)-N-hydroxybenzamide], for which, in data set [1], the “histone H3 acetylation” value is “also induced the acetylation of histone H3”. Besides, the spheres formation entry in data set [3] is “complete inhibition”. Moreover, in data set [2], the acetylation of tubulin entry is listed as “equally effective in inhibiting HDAC6”.

Take `CN1CCC2(CC1)c1ccccc1N(Cc1ccc(C(=O)NO)cc1)C2c1ccccc1` (racemic) [(±)-6a, (±)-N-Hydroxy-4-((1’-methyl-2-phenylspiro[indoline-3,4’-piperidin]-1-yl)methyl)benzamide]: the “histone H3 acetylation” value in data set [1] is “unchanged”. The spheres formation result in data set [3] is recorded as “complete inhibition”. Also, the acetylation of tubulin entry in data set [2] was “marked acetylation of tubulin”.

Consider `CC1(C)c2ccccc2N(Cc2ccc(C(=O)NO)cc2)C1c1cccnc1` (racemic) [(±)-6h, (±)-4-((3,3-Dimethyl-2-(pyridin-3-yl)indolin-1-yl)methyl)-N-hydroxybenzamide], for which, in data set [1], the “histone H3 acetylation” value is reported as “unchanged”. Also, the “mRNA expression for HDAC6” value in data set [4] (n = 3 donors) was “significantly inhibited”. Further, in data set [4] (n = 6 donors), the “mRNA expression for collagen type I” value is recorded as “significantly inhibited”, the “mRNA expression for collagen type III” value is given as “significantly inhibited”, the “mRNA expression for fibronectin” value is on record as “significantly inhibited” and the “mRNA expression for α-SMA” value was “significantly inhibited”. Besides, in data set [5], the mutagenic effect result is reported as “no mutagenic effect”. Moreover, in data set [3], the spheres formation result is reported as “complete inhibition”. The acetylation of tubulin result in data set [2] is “marked acetylation of tubulin”. In data set [6] (100 μM, 3 days old larvae treated for 2 days), the toxic effects observed entry is “some larvae failed to inflate their swim bladder and presented mild cardiac edema”. The well tolerated concentration entry in data set [6] (3 days old larvae treated for 2 days, 1-100 μM) is “up to 50 μM”. The “visual behavior versus vehicle control (0.1% DMSO)” value in data set [6] (five days old larvae, 1 to 100 μM) is “no significant changes”.
